In assay [1] the target is T1, Serine/threonine-protein kinase ULK3 (Homo sapiens, UniProt Q6PHR2).
T1 sequence (Q6PHR2 whole entry): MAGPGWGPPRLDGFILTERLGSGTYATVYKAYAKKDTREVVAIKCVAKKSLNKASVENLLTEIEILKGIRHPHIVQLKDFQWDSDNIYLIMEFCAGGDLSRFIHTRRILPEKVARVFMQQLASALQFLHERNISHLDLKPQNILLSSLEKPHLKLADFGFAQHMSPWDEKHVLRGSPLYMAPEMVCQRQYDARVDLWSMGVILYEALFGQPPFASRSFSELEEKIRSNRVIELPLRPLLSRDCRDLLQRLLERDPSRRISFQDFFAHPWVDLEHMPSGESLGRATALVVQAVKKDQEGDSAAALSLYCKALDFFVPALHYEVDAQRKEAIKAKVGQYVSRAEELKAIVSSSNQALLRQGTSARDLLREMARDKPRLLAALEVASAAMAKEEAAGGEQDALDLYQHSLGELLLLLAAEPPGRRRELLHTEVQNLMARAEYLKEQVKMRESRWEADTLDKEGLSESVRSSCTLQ

The target of assay [2] is T2, Serine/threonine-protein kinase A-Raf (Homo sapiens, UniProt P10398).
T2 sequence (P10398 whole entry): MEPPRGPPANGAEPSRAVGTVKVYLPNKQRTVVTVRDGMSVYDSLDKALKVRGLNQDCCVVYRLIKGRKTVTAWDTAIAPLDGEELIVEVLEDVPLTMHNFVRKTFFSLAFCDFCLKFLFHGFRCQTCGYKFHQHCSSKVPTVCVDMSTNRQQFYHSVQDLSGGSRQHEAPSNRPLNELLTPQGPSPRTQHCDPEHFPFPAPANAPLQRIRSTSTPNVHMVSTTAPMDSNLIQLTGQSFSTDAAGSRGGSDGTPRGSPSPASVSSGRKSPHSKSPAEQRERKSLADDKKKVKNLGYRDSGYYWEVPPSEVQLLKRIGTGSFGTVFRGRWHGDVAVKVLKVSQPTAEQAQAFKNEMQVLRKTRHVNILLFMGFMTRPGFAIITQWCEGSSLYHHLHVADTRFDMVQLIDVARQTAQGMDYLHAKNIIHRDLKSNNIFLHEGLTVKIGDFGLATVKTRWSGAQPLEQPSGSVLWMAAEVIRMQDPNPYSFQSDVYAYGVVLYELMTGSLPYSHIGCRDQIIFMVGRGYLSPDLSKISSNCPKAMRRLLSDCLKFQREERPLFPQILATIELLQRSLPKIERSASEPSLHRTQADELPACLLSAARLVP

The target of assay [3] is LIM domain kinase 2 (Homo sapiens, UniProt P53671).
Assay [4] addresses T3, Heme oxygenase 2 (Homo sapiens, UniProt P30519).
T3 sequence (P30519 whole entry): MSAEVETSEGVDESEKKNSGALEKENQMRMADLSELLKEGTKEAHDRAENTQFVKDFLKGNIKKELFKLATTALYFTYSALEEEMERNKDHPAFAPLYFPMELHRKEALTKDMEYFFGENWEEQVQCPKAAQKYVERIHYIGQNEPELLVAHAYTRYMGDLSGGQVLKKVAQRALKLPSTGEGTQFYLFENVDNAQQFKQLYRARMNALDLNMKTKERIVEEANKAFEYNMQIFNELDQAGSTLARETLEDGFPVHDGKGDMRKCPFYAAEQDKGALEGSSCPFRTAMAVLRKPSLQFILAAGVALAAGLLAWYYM

In assay [5] the target is Proto-oncogene tyrosine-protein kinase Src (Homo sapiens, UniProt P12931).
For assay [6], the target named is Fibroblast growth factor receptor 1 (Homo sapiens, UniProt P11362).
Assay [7] addresses Serine/threonine-protein kinase/endoribonuclease IRE1 (Homo sapiens, UniProt O75460).
In assay [8] the target is Chromodomain-helicase-DNA-binding protein 4 (Homo sapiens, UniProt Q14839).
Assay [9] has as its target Serine/threonine-protein kinase PAK 4 (Homo sapiens, UniProt O96013).
Assay [10] addresses T4, Bone morphogenetic protein receptor type-2 (Homo sapiens, UniProt Q13873).
T4 sequence (Q13873 whole entry): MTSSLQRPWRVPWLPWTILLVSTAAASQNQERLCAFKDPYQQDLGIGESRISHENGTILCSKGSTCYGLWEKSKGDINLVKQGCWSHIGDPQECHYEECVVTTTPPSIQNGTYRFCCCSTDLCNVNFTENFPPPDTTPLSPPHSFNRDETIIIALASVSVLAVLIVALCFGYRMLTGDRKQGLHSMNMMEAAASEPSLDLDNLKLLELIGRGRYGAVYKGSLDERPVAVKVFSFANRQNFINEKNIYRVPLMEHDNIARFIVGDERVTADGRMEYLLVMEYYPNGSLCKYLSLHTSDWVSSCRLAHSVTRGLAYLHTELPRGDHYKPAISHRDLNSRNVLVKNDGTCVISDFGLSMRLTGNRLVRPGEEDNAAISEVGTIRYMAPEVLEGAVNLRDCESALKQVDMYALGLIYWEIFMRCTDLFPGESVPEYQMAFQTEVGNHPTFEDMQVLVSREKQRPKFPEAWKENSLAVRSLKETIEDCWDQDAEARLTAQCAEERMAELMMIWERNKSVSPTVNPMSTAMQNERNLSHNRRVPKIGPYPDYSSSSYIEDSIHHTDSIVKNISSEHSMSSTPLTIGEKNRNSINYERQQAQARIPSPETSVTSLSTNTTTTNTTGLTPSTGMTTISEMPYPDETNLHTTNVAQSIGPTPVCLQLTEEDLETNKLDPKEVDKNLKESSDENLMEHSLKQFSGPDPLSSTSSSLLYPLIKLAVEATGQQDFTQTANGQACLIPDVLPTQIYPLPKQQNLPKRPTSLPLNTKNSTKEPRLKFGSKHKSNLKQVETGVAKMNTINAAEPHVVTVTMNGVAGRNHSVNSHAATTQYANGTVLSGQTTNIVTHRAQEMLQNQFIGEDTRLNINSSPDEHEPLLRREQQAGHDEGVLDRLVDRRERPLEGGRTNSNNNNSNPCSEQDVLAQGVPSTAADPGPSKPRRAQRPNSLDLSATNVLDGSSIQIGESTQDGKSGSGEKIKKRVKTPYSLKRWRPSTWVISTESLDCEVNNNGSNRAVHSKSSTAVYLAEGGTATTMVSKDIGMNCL

SMILES strings stand for the structures. Calls of active or inactive are those of the source. For most assays here, no stated cut-off is given here; in the data, actives have a measured Kd and inactives only a lower limit.

Sequence of Serine/threonine-protein kinase PAK 4 (O96013 whole entry): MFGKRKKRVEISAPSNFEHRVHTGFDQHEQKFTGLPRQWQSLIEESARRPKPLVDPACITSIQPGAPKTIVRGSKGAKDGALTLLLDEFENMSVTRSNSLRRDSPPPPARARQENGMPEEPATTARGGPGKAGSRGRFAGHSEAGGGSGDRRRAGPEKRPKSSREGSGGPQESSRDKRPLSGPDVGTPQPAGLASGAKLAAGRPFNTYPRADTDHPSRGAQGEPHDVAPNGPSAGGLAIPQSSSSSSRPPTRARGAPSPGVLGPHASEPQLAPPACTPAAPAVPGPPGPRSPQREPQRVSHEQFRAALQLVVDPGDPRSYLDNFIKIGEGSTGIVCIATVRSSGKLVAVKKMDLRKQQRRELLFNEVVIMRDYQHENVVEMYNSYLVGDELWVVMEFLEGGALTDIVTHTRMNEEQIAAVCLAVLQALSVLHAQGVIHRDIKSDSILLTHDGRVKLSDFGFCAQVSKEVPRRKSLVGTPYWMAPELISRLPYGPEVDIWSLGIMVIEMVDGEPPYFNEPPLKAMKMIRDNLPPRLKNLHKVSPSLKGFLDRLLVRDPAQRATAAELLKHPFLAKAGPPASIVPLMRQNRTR
Sequence of LIM domain kinase 2 (P53671 whole entry, the tested form may be a part): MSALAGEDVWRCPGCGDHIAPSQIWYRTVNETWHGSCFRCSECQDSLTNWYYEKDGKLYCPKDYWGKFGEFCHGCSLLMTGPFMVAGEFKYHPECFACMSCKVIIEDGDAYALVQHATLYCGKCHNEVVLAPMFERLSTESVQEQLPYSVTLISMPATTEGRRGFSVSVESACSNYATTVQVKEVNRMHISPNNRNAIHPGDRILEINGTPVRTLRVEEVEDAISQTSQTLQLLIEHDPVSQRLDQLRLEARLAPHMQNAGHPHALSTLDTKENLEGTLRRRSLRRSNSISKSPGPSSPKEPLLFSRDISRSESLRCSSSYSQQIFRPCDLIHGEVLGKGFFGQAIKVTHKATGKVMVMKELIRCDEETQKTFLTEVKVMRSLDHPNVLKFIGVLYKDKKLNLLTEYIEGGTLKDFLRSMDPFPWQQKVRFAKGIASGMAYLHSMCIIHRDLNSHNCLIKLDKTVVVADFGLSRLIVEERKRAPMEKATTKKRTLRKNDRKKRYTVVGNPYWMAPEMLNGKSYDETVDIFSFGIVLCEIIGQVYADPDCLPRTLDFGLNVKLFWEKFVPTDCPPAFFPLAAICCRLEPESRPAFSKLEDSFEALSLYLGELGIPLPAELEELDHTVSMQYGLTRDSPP
Sequence of Chromodomain-helicase-DNA-binding protein 4 (Q14839 whole entry): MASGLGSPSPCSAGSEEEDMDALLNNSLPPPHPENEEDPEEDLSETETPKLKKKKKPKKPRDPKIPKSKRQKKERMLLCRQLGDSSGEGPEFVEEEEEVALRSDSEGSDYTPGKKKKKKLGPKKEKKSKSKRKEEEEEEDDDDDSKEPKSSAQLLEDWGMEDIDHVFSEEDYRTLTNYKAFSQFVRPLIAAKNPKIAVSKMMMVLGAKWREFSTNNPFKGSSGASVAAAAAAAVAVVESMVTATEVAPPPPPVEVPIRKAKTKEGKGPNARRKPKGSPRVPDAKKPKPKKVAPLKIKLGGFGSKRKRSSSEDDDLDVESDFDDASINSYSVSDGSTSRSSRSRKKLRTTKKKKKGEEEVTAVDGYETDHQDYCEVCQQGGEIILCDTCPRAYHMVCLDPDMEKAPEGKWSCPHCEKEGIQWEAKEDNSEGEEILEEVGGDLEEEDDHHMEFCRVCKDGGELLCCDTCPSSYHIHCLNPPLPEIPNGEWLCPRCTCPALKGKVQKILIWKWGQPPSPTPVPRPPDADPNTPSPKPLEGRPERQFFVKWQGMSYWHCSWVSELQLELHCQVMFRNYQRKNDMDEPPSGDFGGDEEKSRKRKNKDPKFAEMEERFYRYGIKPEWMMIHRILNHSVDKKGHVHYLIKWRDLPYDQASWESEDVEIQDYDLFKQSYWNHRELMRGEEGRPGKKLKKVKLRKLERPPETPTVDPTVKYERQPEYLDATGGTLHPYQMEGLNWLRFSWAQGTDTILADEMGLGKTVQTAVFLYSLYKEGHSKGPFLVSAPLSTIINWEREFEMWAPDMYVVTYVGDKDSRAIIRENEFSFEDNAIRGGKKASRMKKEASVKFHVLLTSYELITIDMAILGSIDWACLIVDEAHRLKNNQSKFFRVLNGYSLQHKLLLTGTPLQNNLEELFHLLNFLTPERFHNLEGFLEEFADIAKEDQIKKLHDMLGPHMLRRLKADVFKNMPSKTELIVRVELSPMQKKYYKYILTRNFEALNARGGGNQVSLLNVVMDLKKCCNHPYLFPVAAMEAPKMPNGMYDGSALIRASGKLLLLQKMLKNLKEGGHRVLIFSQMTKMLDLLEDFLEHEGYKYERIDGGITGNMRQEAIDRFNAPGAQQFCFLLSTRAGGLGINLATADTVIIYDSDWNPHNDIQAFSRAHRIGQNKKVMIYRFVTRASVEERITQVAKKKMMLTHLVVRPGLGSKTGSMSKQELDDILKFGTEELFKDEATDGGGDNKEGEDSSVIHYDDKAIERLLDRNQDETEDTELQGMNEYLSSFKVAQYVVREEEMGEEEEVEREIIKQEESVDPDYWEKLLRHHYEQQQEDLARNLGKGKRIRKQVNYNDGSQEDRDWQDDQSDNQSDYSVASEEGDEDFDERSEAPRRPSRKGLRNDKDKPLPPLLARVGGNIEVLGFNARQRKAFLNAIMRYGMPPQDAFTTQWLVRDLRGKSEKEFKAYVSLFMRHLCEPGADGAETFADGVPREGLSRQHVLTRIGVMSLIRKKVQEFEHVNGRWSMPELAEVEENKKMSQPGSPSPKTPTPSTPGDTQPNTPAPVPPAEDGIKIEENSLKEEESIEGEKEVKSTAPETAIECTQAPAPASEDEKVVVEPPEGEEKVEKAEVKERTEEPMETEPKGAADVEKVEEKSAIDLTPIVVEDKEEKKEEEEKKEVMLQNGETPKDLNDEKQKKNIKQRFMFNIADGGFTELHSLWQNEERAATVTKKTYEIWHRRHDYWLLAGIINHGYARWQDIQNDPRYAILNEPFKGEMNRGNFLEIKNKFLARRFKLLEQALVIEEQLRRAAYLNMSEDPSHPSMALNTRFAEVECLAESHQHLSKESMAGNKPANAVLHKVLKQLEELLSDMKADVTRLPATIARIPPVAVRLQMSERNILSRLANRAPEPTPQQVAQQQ
Sequence of Serine/threonine-protein kinase/endoribonuclease IRE1 (O75460 whole entry): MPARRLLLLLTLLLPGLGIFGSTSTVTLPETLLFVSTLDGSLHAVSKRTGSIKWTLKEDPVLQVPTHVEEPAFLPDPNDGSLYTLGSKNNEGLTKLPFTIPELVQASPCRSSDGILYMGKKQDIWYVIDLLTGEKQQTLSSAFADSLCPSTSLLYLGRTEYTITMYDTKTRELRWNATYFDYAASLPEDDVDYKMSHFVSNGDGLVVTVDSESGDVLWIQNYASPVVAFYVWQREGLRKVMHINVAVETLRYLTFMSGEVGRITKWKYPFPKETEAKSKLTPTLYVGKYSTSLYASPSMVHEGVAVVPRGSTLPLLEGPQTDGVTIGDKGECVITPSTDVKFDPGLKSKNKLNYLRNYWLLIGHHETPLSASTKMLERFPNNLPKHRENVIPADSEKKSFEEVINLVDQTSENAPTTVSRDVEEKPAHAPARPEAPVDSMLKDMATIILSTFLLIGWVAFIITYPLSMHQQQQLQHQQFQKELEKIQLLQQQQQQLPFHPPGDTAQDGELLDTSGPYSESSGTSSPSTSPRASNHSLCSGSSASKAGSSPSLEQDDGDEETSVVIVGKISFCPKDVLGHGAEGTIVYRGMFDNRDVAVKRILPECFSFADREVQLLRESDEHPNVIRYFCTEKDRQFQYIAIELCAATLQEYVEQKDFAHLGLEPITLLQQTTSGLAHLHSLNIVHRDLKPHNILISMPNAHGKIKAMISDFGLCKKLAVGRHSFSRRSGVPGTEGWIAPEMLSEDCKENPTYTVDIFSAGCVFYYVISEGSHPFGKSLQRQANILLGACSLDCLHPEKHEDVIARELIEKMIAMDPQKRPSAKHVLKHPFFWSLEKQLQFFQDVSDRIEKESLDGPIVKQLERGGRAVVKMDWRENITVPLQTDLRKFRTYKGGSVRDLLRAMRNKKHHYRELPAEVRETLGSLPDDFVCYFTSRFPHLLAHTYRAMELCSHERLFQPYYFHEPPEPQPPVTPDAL
Sequence of Fibroblast growth factor receptor 1 (P11362 whole entry): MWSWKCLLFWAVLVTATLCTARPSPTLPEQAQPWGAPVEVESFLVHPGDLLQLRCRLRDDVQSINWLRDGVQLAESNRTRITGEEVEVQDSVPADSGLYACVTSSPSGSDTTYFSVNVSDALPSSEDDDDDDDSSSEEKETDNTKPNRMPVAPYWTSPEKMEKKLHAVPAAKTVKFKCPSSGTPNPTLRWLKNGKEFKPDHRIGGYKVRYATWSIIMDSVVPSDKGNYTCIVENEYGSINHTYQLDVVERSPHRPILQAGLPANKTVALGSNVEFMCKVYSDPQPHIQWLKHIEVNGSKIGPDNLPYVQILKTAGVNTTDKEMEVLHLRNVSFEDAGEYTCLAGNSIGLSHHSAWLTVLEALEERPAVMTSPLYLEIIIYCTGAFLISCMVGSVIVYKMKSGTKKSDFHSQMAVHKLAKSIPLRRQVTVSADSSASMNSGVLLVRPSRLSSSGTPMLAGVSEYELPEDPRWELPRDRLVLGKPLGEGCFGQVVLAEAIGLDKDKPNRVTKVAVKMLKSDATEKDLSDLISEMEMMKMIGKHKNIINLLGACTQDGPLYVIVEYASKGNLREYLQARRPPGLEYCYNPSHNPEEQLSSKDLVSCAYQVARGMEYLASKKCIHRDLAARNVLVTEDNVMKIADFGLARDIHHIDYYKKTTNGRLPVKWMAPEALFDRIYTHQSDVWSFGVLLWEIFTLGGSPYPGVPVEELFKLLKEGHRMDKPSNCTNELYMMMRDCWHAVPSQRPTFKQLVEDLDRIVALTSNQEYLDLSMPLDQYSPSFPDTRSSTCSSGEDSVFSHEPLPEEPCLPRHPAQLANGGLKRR

As to `Cc1cc2c(F)c(Oc3ncnn4cc(OC[C@@H](C)OC(=O)[C@H](C)N)c(C)c34)ccc2[nH]1` [BRIVANIB ALANINATE], the Kd is > 30 µM (inactive) in [1]; > 30 µM (inactive) in assay [2]; > 30 µM (inactive) in assay [3]; > 30 µM (inactive) in assay [4]; > 30 µM (inactive) in [5]; 3.9 µM (active) in [6]. For the same molecule, the Kd in assay [7], in assay [8], in [9] and in [10] was > 30 µM (inactive) in each case.

With `COC(=O)N[C@@H](C)CNc1nccc(-c2cn(C(C)C)nc2-c2cc(Cl)cc(NS(C)(=O)=O)c2F)n1` [ENCORAFENIB], the Kd was > 30 µM (inactive) in assay [1]; > 30 µM (inactive) in assay [2]; 0.096 µM (active) in assay [3]; > 30 µM (inactive) in [4]; > 30 µM (inactive) in [5]; > 30 µM (inactive) in assay [6]. Besides, the Kd in assay [7], in assay [8], in assay [9] and in assay [10] was > 30 µM (inactive) throughout.

As to `Cc1c(F)cc(C(=O)NC2CC2)cc1-c1ccc(C(=O)NCC(C)(C)C)cn1` [LOSMAPIMOD], the Kd in assay [1], in assay [2], in assay [3], in assay [4], in [5] and in [6] was > 30 µM (inactive) throughout. The Kd in [7], in assay [8], in assay [9] and in [10] was > 30 µM (inactive) throughout.

For `Cc1cc(-c2cc(O)ccc2Cl)cc2nnc(Nc3ccc(OCCN4CCCC4)cc3)nc12`, the Kd in assay [1] was > 30 µM (inactive); in assay [2], > 30 µM (inactive); in [3], > 30 µM (inactive); in assay [4] it was > 30 µM (inactive); in assay [5], 0.001 µM (active); in assay [6], > 30 µM (inactive). The Kd in assay [7] is > 30 µM (inactive); in assay [8], > 30 µM (inactive); in assay [9], > 30 µM (inactive); in assay [10] it was 0.003 µM (active).

For the molecule `C=CC(=O)N1CCC(Oc2cc3c(Nc4ccc(Cl)c(Cl)c4F)ncnc3cc2OC)CC1` [POZIOTINIB], the Kd in [1], in [2], in assay [3], in assay [4], in [5] and in [6] was > 30 µM (inactive) throughout. The Kd in assay [7], in [8], in assay [9] and in [10] was > 30 µM (inactive) throughout.

For the molecule `O=C1NC(=O)/C(=C/c2ccc3nccc(-c4ccncc4)c3c2)S1` [GSK-1059615], the Kd in assay [1], in [2], in assay [3], in assay [4], in assay [5] and in [6] was > 30 µM (inactive) throughout. Further, the Kd in assay [7], in [8], in [9] and in [10] was > 30 µM (inactive) throughout.

Regarding `CC[C@@H]1C(=O)N(C)c2cnc(Nc3ccc(C(=O)N[C@H]4CC[C@H](N5CCN(CC6CC6)CC5)CC4)cc3OC)nc2N1C(C)C` [VOLASERTIB], the Kd in [1], in assay [2], in assay [3], in assay [4], in [5] and in assay [6] was > 30 µM (inactive) in each case. The Kd in assay [7], in [8], in assay [9] and in assay [10] was > 30 µM (inactive) throughout.

As for `O=c1sn(-c2cccc3ccccc23)c(=O)n1Cc1ccccc1` [TIDEGLUSIB], the Kd in assay [1], in assay [2], in [3], in [4], in assay [5] and in assay [6] was > 30 µM (inactive) throughout. Moreover, the Kd in assay [7], in assay [8], in assay [9] and in assay [10] was > 30 µM (inactive) each time.

For the molecule `CO[C@H]1C[C@@H]2CC[C@@H](C)[C@@](O)(O2)C(=O)C(=O)N2CCCC[C@H]2C(=O)O[C@H]([C@H](C)C[C@@H]2CC[C@@H](OCCO)[C@H](OC)C2)CC(=O)[C@H](C)/C=C(\C)[C@@H](O)[C@@H](OC)C(=O)[C@H](C)C[C@H](C)/C=C/C=C/C=C/1C` [EVEROLIMUS], the Kd in [1], in assay [2], in assay [3], in assay [4], in [5] and in [6] was > 30 µM (inactive) in each case. The Kd in assay [7], in [8], in assay [9] and in assay [10] was > 30 µM (inactive) each time.

As for `CN(C)C(=O)c1cc2cnc(Nc3ccc(N4CCNCC4)cn3)nc2n1C1CCCC1` [RIBOCICLIB], the Kd in assay [1], in assay [2], in assay [3], in assay [4], in [5] and in assay [6] was > 30 µM (inactive) in each case. Besides, the Kd in assay [7], in assay [8], in assay [9] and in [10] was > 30 µM (inactive) each time.

The term Kd denotes the concentration at which binding is half-saturated.

Source of the values: ChEMBL document CHEMBL3991601, “The target landscape of clinical kinase drugs” (Science, 2017).
